Reference: ChEMBL document CHEMBL3525943, “Regiospecific and stereospecific triangulation of the structures of metabolites formed by sequential metabolism at multiple prochiral centers” (Drug Metab Dispos, 2012)

What was measured:
Liver microsome [1] = experiment: Retention time of the compound in rat liver microsomes treated with (S)-2-((1S,2S,4R)-bicyclo[2.2.1]heptan-2-ylamino)-5-(2-hydroxypropan-2-yl)-5-methylthiazol-4(5H)-one at 20 uM preincubated for 5 mins followed by NADPH addition measured after 60 mins by LC-MS/MS analysis; assay type: ADME; details: 1 h
[2] = Drug level in Sprague-Dawley rat urine treated with [14C]-AMG 221 at 2 mg/kg, po measured over 24 hrs by LC-MS/HPLC radiometric analysis; assay type: ADME, organism-based; design: dose 2 mg/kg, route oral; details: in vivo
[3] = Drug excretion in female Sprague-Dawley rat urine treated with [14C]-AMG 221 at 2 mg/kg, po measured over 24 hrs by LC-MS/HPLC radiometric analysis; assay type: ADME, organism-based; design: dose 2 mg/kg, route oral; details: in vivo
[4] = Retention time of the compound in Sprague-Dawley rat urine treated with [14C]-AMG 221 at 2 mg/kg, po measured over 24 hrs by LC-MS/HPLC radiometric analysis; assay type: ADME, organism-based; design: dose 2 mg/kg, route oral; details: in vivo
[5] = Retention time of the compound in Beagle dog urine treated with [14C]-AMG 221 at 2 mg/kg, po measured over 24 hrs by LC-MS/HPLC radiometric analysis; assay type: ADME, organism-based, Canis lupus familiaris; design: dose 2 mg/kg, route oral; details: in vivo
[6] = Drug excretion in male Sprague-Dawley rat urine treated with [14C]-AMG 221 at 2 mg/kg, po measured over 24 hrs by LC-MS/HPLC radiometric analysis; assay type: ADME, organism-based; design: dose 2 mg/kg, route oral; details: in vivo
[7] = Drug excretion in female Sprague-Dawley rat feces treated with [14C]-AMG 221 at 2 mg/kg, po measured over 24 hrs by LC-MS/HPLC radiometric analysis; assay type: ADME, organism-based; design: dose 2 mg/kg, route oral; details: in vivo
Rattus norvegicus = experiment: Total drug recovery in female Sprague-Dawley rat treated with [14C]-AMG 221 at 2 mg/kg, po measured over 48 hrs by liquid scintillation counting analysis; assay type: ADME, organism-based; design: dose 2 mg/kg, route oral; details: in vivo
[8] = Drug excretion in male Sprague-Dawley rat feces treated with [14C]-AMG 221 at 2 mg/kg, po measured over 24 hrs by LC-MS/HPLC radiometric analysis; assay type: ADME, organism-based; design: dose 2 mg/kg, route oral; details: in vivo
Liver microsome [9] = experiment: Drug level in rat liver microsomes treated with (S)-2-((1S,2S,4R,6R)-6-hydroxybicyclo[2.2.1]heptan-2-ylamino)-5-isopropyl-5-methylthiazol-4(5H)-one at 20 uM preincubated for 5 mins followed by NADPH addition measured after 60 mins by LC-MS/MS analysis; assay type: ADME; details: 1 h
[10] = Drug level in Sprague-Dawley rat urine treated with [14C]-(S)-2-((1R,2S,4R,5S)-5-hydroxybicyclo[2.2.1]heptan-2-ylamino)-5-isopropyl-5-methylthiazol-4(5H)-one at 5 mg/kg, po measured over 48 hrs by LC-MS/MS analysis; assay type: ADME, organism-based; design: dose 5 mg/kg, route oral; details: in vivo

Row | Retention_time (Liver microsome [1]) [min] | Drug metabolism [2] | Drug excretion [3] [%] | Retention_time [4] [min] | Retention_time [5] [min] | Drug excretion [6] [%] | Drug excretion [7] [%] | Drug recovery (Rattus norvegicus) [%] | Drug excretion [8] [%] | Drug metabolism (Liver microsome [9]) | Drug metabolism [10] | Compound
1 | 15.7 | metabolite_detected | 24 | 15.1 | 15.1 | 8.3 | 24 | 0.9 | 8.3 | metabolite_detected |  | C[C@@H](CO)[C@]1(C)SC(N[C@H]2C[C@H]3C[C@@H]2[C@H](O)C3)=NC1=O
2 |  |  |  |  | 20.6 |  |  | 0.2 |  |  | metabolite_detected | CC(C)[C@]1(C)SC(N[C@H]2C[C@H]3C[C@@H]2C[C@@H]3O[C@@H]2O[C@H](C(=O)O)[C@@H](O)[C@H](O)[C@H]2O)=NC1=O
